For orientation: IC50 means the concentration at which inhibition is half-maximal. A high value points to a need for much substance.

Here are results for one molecule from PMC10578927, “An unconventional gatekeeper mutation sensitizes inositol hexakisphosphate kinases to an allosteric inhibitor” (eLife, 2023).

In this assay the target is T1, IP6KA^M85V (Entamoeba histolytica, UniProt N9UNA8, M85V).
T1 sequence (N9UNA8 1-270 M85V): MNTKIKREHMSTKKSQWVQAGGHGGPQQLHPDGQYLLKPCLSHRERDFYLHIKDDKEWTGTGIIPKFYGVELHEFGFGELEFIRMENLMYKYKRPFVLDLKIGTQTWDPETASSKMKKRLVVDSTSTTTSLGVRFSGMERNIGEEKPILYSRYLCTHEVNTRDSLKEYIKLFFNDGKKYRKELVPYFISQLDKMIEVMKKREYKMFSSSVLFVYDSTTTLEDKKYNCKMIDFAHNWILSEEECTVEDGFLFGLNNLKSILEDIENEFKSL
Put plainly: NMR activity assay for EhIP6KA constructs. Format: biochemical.

For the molecule `O=C(O)c1ccc2c(c1)C(=O)N(c1ccc(-c3nc4ccc(N5C(=O)c6ccc(C(=O)O)cc6C5=O)cc4[nH]3)cc1)C2=O` [FMP-201300], the IC50 came to 780 nM.
